In patent US10369153B2, “Pyrrolopyrimidine compounds and uses thereof” (HUTCHISON MEDIPHARMA LIMITED, priority 2010, dated 2019) one finds inhibition and IC50 data, which are given here for three molecules.

The structures appear in SMILES notation.

Test [1] has as its target Recombinant human JAK1 catalytic domain (Homo sapiens (Human), UniProt P23458). The test can be described thus: JAK1 kinase assay (Z'-LYTE, Tyr 6 Peptide). The conditions noted are these: 0.3 uM concentration, read-out: inhibition percentage (IR %). The test is classed as biochemical. How it is done:
JAK1/2/3 kinase assay are performed in vitro using Kit-Tyr 6 Peptide (Invitrogen, Cat. No. PV4122). TYK2 kinase assay are performed in vitro using Z′-LYTE™ Kinase Assay Kit-Tyr 3 Peptide (Invitrogen, Cat. No. PV3192). […] All compounds are initially tested at 8 different concentrations (1 μM down to 0.0003 μM) using a 1:3 serial dilution scheme.

Test [2] relates to IL-6-induced STAT3 phosphorylation. Nature of the test: IL-6-induced STAT3 phosphorylation in HepG2 cells. The test is classed as cell-based. The conditions noted are these: Homo sapiens, IL-6 stimulation, read-out: pSTAT3 IC50. How it is done: For the determination of IL-6-induced STAT3 phosphorylation, HepG2 cells (SIBS) are seeded in 96 well plates at 5.4×10^3 cells per well in Serum Free DMEM media overnight and incubated in the presence or absence of various concentrations of diluted compound for 30 min at 37° C., 5% CO2. Cells were stimulated by adding 10 ng/ml human recombinant IL-6 to each well for 15 minutes at 37° C., 5% CO2. Cells are then fixed in 2% paraformaldehyde for 45 minutes at room temperature and incubated in ice-cold methanol for 30 minutes. After washing in PBS, cells are incubated with rabbit anti-phospho-STAT3 (Y705) (Cell Signaling Technologies, 1:1000 in antibody dilution solution) primary antibody overnight at 4° C. Goat anti-rabbit IgG Alexa 488 (Invitrogen, 1:1,000 dilution in PBS) secondary antibody is added for 90 minutes prior to PBS washes. Cells are counted following incubation in a 7.5 uM propidium iodide, 100 μg/ml RNaseA, PBS solution for 60 minutes in the dark. Plates are read on an Acumen X3 instrument (TPP Labtech).
(§1) Percent inhibition is calculated using the following formula: Inhibition (%)=100−((inhibitor treatment−cell)/(stimulator−cell))×100 […]

Test [3] concerns IL-3-induced STAT5 phosphorylation. Nature of the test: IL-3-induced STAT5 phosphorylation in TF-1 cells. The test is classed as cell-based. The conditions noted are these: Homo sapiens, IL-3 stimulation, read-out: pSTAT5 IC50. How it is done:
For the determination of IL-3-induced STAT5 phosphorylation, TF-1 cells (ATCC) are plated in 96 well plates at 1×10^4 cells per well in 10% FBS RPMI-1640 media at 37° C., 5% CO2 for 3 hours. Cells were incubated in the presence or absence of various concentrations of diluted compound for 30 min at 37° C., 5% CO2. Cells were stimulated by adding 10 ng/ml human recombinant IL-3 to each well for 30 minutes at 37° C., 5% CO2. Cells are then fixed in 2% paraformaldehyde for 45 minutes at room temperature and incubated in ice-cold methanol for 30 minutes. After washing in PBS, cells are incubated with rabbit anti-phospho-STAT5 (Y694) (Cell Signaling Technologies, 1:1000 in antibody dilution solution) primary antibody overnight at 4° C. Goat anti-rabbit IgG Alexa 488 (Invitrogen, 1:1,000 dilution in PBS) secondary antibody is added for 90 minutes prior to PBS washes. Cells are counted following incubation in a 7.5 uM propidium iodide, 100 μg/ml RNaseA, PBS solution for 60 minutes in the dark. Plates are read on an Acumen X3 instrument (TPP Labtech).
as §1

Chain of Recombinant human JAK1 catalytic domain (P23458 875-1153): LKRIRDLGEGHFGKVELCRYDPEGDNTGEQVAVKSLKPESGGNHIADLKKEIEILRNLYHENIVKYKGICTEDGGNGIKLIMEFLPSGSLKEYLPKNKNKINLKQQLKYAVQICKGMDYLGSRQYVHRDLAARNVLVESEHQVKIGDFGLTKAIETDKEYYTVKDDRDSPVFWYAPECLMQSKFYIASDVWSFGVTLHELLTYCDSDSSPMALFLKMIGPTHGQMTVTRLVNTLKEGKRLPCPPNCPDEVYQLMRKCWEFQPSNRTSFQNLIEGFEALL

What is called inhibition is the change of the read-out against control, counted positive when it falls. On to `CN(c1ccc(C(=O)N[C@@H](CO)c2ccccc2)cn1)[C@@H]1CCN(c2ncnc3[nH]ccc23)C1` [Compound 176], for which the inhibition at 0.3 µM in test [1] was 50 to 100%.
The IC50 is the point on the concentration scale where inhibition reaches its midpoint. With `CN(c1ccc(C(=O)Nc2nccs2)cn1)[C@@H]1CCN(c2ncnc3[nH]ccc23)C1` [Compound 199], the inhibition at 0.3 µM in test [1] is 50 to 100%. Further, the results for the half-inhibitory concentration (IC50) in test [2] and in test [3] were 0.05 µM and 7.55 µM, respectively.
Consider `CN(C(=O)c1ccc(N(C)[C@@H]2CCN(c3ncnc4[nH]ccc34)C2)nc1)[C@@H](CO)c1ccccc1` [Compound 200], for which the inhibition at 0.3 µM in test [1] lay within 20 to 50%.
